In brackets after ≈: the same amount, converted by molar mass. Activity calls are given as the source filed them. No cut-off for these calls is given here.
Tests used:
Lacticaseibacillus casei [1] = test: Antimicrobial activity against Lactobacillus casei ATCC 7469 at 2 ug/ml; type: functional, organism-based
CCRF-CEM [2] = test: Cytotoxicity against human CCRF-CEM cells at 10 ug/ml; type: functional, cell-based
[3] = biological target: T1, Thymidylate synthase (Lactobacillus casei) (UniProt P00469); test: Inhibition of Lactobacillus casei thymidylate synthetase; settings: Lacticaseibacillus casei
T1 sequence (whole entry): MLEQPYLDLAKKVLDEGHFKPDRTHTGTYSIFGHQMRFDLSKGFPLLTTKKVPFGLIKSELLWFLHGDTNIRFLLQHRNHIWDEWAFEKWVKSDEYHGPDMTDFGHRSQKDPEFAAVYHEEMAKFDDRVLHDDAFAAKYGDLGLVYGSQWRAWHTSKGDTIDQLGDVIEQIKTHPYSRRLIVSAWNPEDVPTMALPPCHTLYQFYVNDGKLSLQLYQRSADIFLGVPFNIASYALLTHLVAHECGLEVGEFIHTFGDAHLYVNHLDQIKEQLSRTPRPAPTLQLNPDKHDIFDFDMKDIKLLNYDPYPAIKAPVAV

L1210 = test: Antitumor activity against mouse L1210 cells allografted in BDF1 mouse assessed as increase of life span at non-toxic dosed administered as ip on day 1, 4 and 7; type: functional, organism-based
Pediococcus = test: Increase of Pediococcus cerevisiae ATCC 8081 growth relative to leucovorin; type: functional
Mus musculus = test: Toxicity in mouse L1210 cells allografted BDF1 mouse at 60 mg/kg, ip; type: organism-based; set-up: dose 60 mg/kg, route intraperitoneal; settings: in vivo
Enterococcus faecium = test: Increase of Streptococcus faecium ATCC 8043 growth relative to folic acid; type: functional
Lacticaseibacillus casei [4] = test: Antimicrobial activity against Lactobacillus casei ATCC 7469; type: functional; settings: read-out: ID50 (the source's name)
CCRF-CEM [5] = test: Cytotoxicity against human CCRF-CEM cells; type: functional; settings: read-out: ID50 (the source's name)

`COC(=O)CC[C@H](NC(=O)Nc1ccc(/N=C/c2cnc3nc(NC(C)=O)[nH]c(=O)c3n2)cc1)C(=O)OC` was tested, and the Activity (Lacticaseibacillus casei [1]) was “inactive” and the Activity (CCRF-CEM [2]) was “inactive”.

In the case of `COC(=O)CC[C@H](NC(=O)Nc1ccc(NCc2cnc3nc(NC(C)=O)[nH]c(=O)c3n2)cc1)C(=O)OC`, the Activity (Lacticaseibacillus casei [1]) is reported as “inactive” and the Activity (CCRF-CEM [2]) is reported as “inactive”.

For `COC(=O)C[C@H](NC(=O)Nc1ccc(/N=C/c2cnc3nc(NC(C)=O)[nH]c(=O)c3n2)cc1)C(=O)OC`, the Activity (Lacticaseibacillus casei [1]) was “inactive” and the Activity (CCRF-CEM [2]) was “inactive”.

`COC(=O)C[C@H](NC(=O)Nc1ccc(NCc2cnc3nc(NC(C)=O)[nH]c(=O)c3n2)cc1)C(=O)OC` was tested, and the Activity (Lacticaseibacillus casei [1]) was “inactive” and the Activity (CCRF-CEM [2]) was “inactive”.

For `Nc1nc2ncc(CNc3ccc(NC(=O)NC(CCC(=O)O)C(=O)O)cc3)nc2c(=O)[nH]1` (racemic), the Activity (Lacticaseibacillus casei [1]) was “inactive”, the ID50 [3] was 1.8 ×10⁻⁴ M and the Activity (L1210) was “inactive”. For the same compound, the Activity (Pediococcus) was 0.5%, the Activity (Mus musculus) was “Toxic” and the Activity (CCRF-CEM [2]) was “inactive”. It also gave an Activity (Enterococcus faecium) of 2%.

In the case of `Nc1nc2ncc(CNc3ccc(NC(=O)NC(CC(=O)O)C(=O)O)cc3)nc2c(=O)[nH]1` (racemic), the ID50 [3] is reported as 1.8 ×10⁻⁴ M, the IC50 (Lacticaseibacillus casei [4]) is reported as 1.6 µg/mL (≈ 3.62 µM) and the Activity (L1210) is reported as “inactive”. The Activity (Mus musculus) was “Toxic” and the Activity (CCRF-CEM [2]) was “inactive”.

With `CN(Cc1cnc2nc(N)nc(N)c2n1)c1ccc(C(=O)N[C@@H](CCC(=O)O)C(=O)O)cc1` [METHOTREXATE] the IC50 (Lacticaseibacillus casei [4]) was 0.01 µg/mL (≈ 0.022 µM) and the IC50 (CCRF-CEM [5]) was 0.02 µg/mL (≈ 0.044 µM).
